Measured values from patent publication US6462171B1, “Peptides and pharmaceutical compositions thereof for treatment of disorders or diseases associated with abnormal protein folding into amyloid or amyloid-like deposits” (New York University, priority 1995, dated 2002).
Where “and” joins values, the source holds several entries; their conditions need not be identical. Identical values can stand only once. Like-named read-outs stand apart in the source and are kept apart here.

What was measured:
[1] = background art; cited from earlier work
[2] = test system: Aβ1-40; test: Thioflavine T fluorometric assay of amyloid formation by Aβ1-40; type: biochemical; details: for % of amyloid Aβ1-40: amyloid remaining, 30 μg Aβ with 10-fold molar excess of peptide, 2 days, room temperature, 0.1M tris pH 7.6, Aβ alone = 100; for amyloid formed, as % of the amyloid detectable in the absence of inhibitor: 24 h, Aβ 1 mg/ml
[3] = target: Aβ1-42 (Homo sapiens, UniProt P05067); test: Thioflavine T fluorometric assay of amyloid formation by Aβ1-42; type: biochemical; details: for % of amyloid Aβ1-42: amyloid remaining, 30 μg Aβ with 10-fold molar excess of peptide, 2 days, room temperature, 0.1M tris pH 7.6, Aβ alone = 100
[4] = target: PrP106-126 (Homo sapiens, UniProt P04156); details: same concentration as iPrP-12aa
[5] = target: T1, Aβ (Homo sapiens, UniProt P05067); test: Aβ amyloid fibril formation in vitro (Aβ variant not named); type: biochemical; details: 50-fold molar excess over soluble amyloid monomers
[6] = target: T1, Aβ; test: Redissolution of preformed Aβ fibrils by anti-amyloid peptide 1; type: biochemical; details: molar ratio 1:50 (Aβ:anti-amyloid peptide 1), 15 minutes to 24 hours
[7] = test system: amyloid A (SEQ ID NO: 13); test: Fibril formation by the amyloidogenic peptide of amyloid A; type: biochemical; details: 1 mg/ml, 24 hours, molar ratio 1:5 or 1:20
Description: (§1) FIG. 8 is a bar graph showing the effect of anti-amyloid peptide 1 on the amyloid formation by Aβ and of peptides derived from the amyloidogenic sequence of gelsolin amyloid and amyloid A. Either β or the fifteen amino acid peptides containing the amyloidogenic sequence of gelsolin amyloid (SEQ ID NO: 12) and amyloid A (SEQ ID NO: 13) were incubated in a concentration of 1 mg/ml for 24 hours without and with anti-amyloid peptide 1 in a molar ratio of 1:5 or 1:20.

[8] = test system: gelsolin amyloid (SEQ ID NO: 12); test: Fibril formation by the amyloidogenic peptide of gelsolin amyloid; type: biochemical; details: 1 mg/ml, 24 hours, molar ratio 1:5 or 1:20
Description: as §1

[9] = test system: Aβ1-40; test: Negative-staining electron microscopy of Aβ1-40 fibril formation and dissolution; type: biochemical; details: for effect on Aβ1-40 fibril formation by electron microscopy: Aβ1-40 2 mg/ml, 40-fold excess from the start, 6 days, 37° C.
[10] = Aggregation of the peptide incubated alone; type: physicochemical; details: for amyloid-like material formed by the peptide alone, electron microscopy: 6 days, same concentration as with Aβ
Description: Based on these criteria, an 11 amino acid peptide, called inhibitor of Aβ fibrillogenesis peptide (iAβ) was designed, which has a low probability of adopting a β-sheet conformation due to the presence of proline residues (FIG. 9). The circular dichroism spectrum of iAβ in aqueous solution was typical of unordered structures (FIG. 10). Samples of iAβ at different concentrations as well as samples incubated for several days have similar spectra (FIG. 10).
The inhibition of fibril formation and the dissolution of preformed fibrils by iAβ was also analyzed by negative-staining electron microscopy (FIGS. 15a -f). Aβ1-40 (2 mg/ml) preincubated for 6 days at 37° C. formed typical 8-10 nm unbranched fibrils (Castano et al., biochem. Biophys. Res. Commun. 141:782-789, 1986) (FIG. 15a).

[11] = test system: Aβ1-40; test: Aβ-iAβ binding by quenching of intrinsic Tyr10 fluorescence of Aβ
[12] = target: Aβ1-40 fibrils (Homo sapiens, UniProt P05067); test: Dissolution of preformed Aβ1-40 fibrils, fluorometric quantitation; type: biochemical
[13] = target: Aβ1-42 fibrils (Homo sapiens, UniProt P05067); test: Dissolution of preformed Aβ1-42 fibrils, fluorometric quantitation; type: biochemical; details: 40-fold molar excess of iAβ, 24 h incubation
[14] = test system: amyloid-A (AA) deposition; test: Experimental murine model of amyloid-A amyloidosis (AEF and silver nitrate), amyloid in spleen; type: in vivo, BALB/c mice
[15] = target: T2, Aβ1-40 with human plasma apolipoprotein E (Homo sapiens, UniProt P05067); test: Promotion of Aβ fibrillogenesis induced by apolipoprotein E, thioflavine T assay; type: biochemical; details: 30 μg Aβ1-40, 2.4 μg apoE, 1:10 (Aβ:iAβ), 24 h, room temperature
T2 construct: 30 μg of Aβ1-40 were incubated with or without 2.4 μg of human plasma apolipoprotein E; made in house; host or cells: Aβ1-40: chemical solid-phase synthesis
Description: Samples of Aβ alone or Aβ/apoE were incubated also with 1:10 (Aβ:iAβ) of the inhibitor. All the incubations were performed for 24 h at room temperature. Amyloid formation was evaluated by the thioflavine T fluorometric assay. The average of two different experiments is shown.

[16] = target: Aβ with heparan-sulfate proteoglycan (Homo sapiens, UniProt P05067); test: Heparan-sulfate proteoglycan-induced Aβ fibrillogenesis; type: biochemical; details: preliminary experiments
[17] = Kisilevsky et al., 1995; cited from earlier work

Aβ1-42, sequence (P05067 18-42): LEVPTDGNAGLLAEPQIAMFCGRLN
Aβ1-40, sequence (P05067 18-40): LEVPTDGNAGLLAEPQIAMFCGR
T1 sequence (P05067 672-711 limits assumed): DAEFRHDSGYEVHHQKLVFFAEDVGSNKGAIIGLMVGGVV
Aβ1-40 fibrils, sequence (P05067 672-711): as the sequence (P05067 672-711 limits assumed) above
Aβ with heparan-sulfate proteoglycan, sequence (P05067 672-711 limits assumed): as above

COc1cccc2c1C(=O)c1c(O)c3c(c(O)c1C2=O)C[C@@](O)(C(=O)CO)C[C@@H]3O[C@H]1C[C@H](N)[C@H](I)[C@H](C)O1 [IDOX, Anthracycline 4′-iodo-4′-deoxy-doxorubicin]
toxicity [1]: extremely toxic

Aβ18-21: short Aβ fragment (VFFA) [reference compound]
% of amyloid Aβ1-40 [2]: 105 ± 3.2%
% of amyloid Aβ1-42 [3]: 98.5 ± 5.3%

CP1: unrelated control peptide of 12 amino acids (VHVSEEGTEPA) [reference compound]
% of amyloid Aβ1-40 [2]: 98.4 ± 1.2%
% of amyloid Aβ1-42 [3]: 101.3 ± 1.9%
effect on amyloid formation by PrP106-126 [4]: No significant effect

CP2: control peptide (GYLTVAAVFRG) [reference compound]
% of amyloid Aβ1-40 [2]: 111.3 ± 4.1%
% of amyloid Aβ1-42 [3]: 125.3 ± 3.9%

CP3: control peptide (PADVPLAPRAVD) [reference compound]
% of amyloid Aβ1-40 [2]: 87.7 ± 2.0%
% of amyloid Aβ1-42 [3]: 94.4 ± 1.4%

Leu Val Phe Phe Ala [Aβ17-21, reference compound]
% of amyloid Aβ1-40 [2]: 89.2 ± 2.7%
% of amyloid Aβ1-42 [3]: 92.3 ± 3.4%

Pro-Phe-Phe [iAβ6]
% of amyloid Aβ1-40 [2]: 108.1 ± 7.9%
% of amyloid Aβ1-42 [3]: 88.9 ± 2.6%

anti-amyloid peptide 1: 15-amino acid anti-amyloid peptide (SRGDLPFFPVPIGDS)
inhibition of amyloid fibril formation [5]: 90%
dissolution of preformed Aβ fibrils [6]: Dissolution of preformed fibrils also occurred
inhibition of fibril formation of the amyloid-A peptide [7]: inhibits the fibril formation
inhibition of fibril formation of the gelsolin related amyloid peptide [8]: inhibits the fibril formation

control peptide: 12 residue non-related control peptide (VHVSEEGTEPEA) [reference compound]
effect on amyloid formation by Aβ1-40 ([2]; FIGS. 12 and 13): did not alter amyloid formation
effect on amyloid formation by Aβ1-42 ([3]; FIG. 12): did not alter amyloid formation
effect on Aβ1-40 fibril formation by electron microscopy [9]: did not produce any effect
amyloid-like material formed by the peptide alone, electron microscopy [10]: formed no amyloid-like material

iAβ1: shorter derivative of iAβ (RDLPFFPVD)
% of amyloid Aβ1-40 [2]: 55.2 ± 2.1%
% of amyloid Aβ1-42 [3]: 85.7 ± 11.6%

iAβ2: seven amino acid residue shorter derivative of iAβ (LPFFPVD)
% of amyloid Aβ1-40 [2]: 36.7 ± 4.8%
% of amyloid Aβ1-42 [3]: 61.3 ± 3.0%

iAβ3: shorter derivative of iAβ; valine inserted into the sequence of SEQ ID NO:18 (LPFFVD)
% of amyloid Aβ1-40 [2]: 90.1 ± 1.3%
% of amyloid Aβ1-42 [3]: 87.1 ± 6.1%

iAβ4: five residue derivative of iAβ; proline substituted for valine of Aβ 17-21, aspartic acid at the end (LPFFD)
% of amyloid Aβ1-40 [2]: 28.7 ± 1.7%
% of amyloid Aβ1-42 [3]: 45.4 ± 0.6%

iAβ5: shorter derivative of iAβ (LPFF)
% of amyloid Aβ1-40 [2]: 92.1 ± 1.3%
% of amyloid Aβ1-42 [3]: 82.4 ± 5.0%

iAβ: 11 amino acid peptide partially homologous to Aβ residues 17-21, with proline residues and charged ends (RDLPFFPVPID)
amyloid formed, as % of the amyloid detectable in the absence of inhibitor ([2]; 5-fold molar excess of iAβ): 33.9%
amyloid formed, as % of the amyloid detectable in the absence of inhibitor ([2]; 20-fold molar excess of iAβ): 13.7%
% of amyloid Aβ1-40 [2]: 25.5 ± 0.7%
inhibition of amyloid formation ([3]; 5-fold molar excess of iAβ over Aβ1-42, 24 h): 28.7%
inhibition of amyloid formation ([3]; 20-fold molar excess of iAβ over Aβ1-42, 24 h): 72.3%
inhibition of amyloid formation ([3]; 40-fold molar excess of iAβ over Aβ1-42, 24 h): 80.6%
% of amyloid Aβ1-42 [3]: 57.9 ± 1.3%
maximum quenching of Aβ fluorescence, % of total fluorescence ([11]; at approximately 4 μM of iAβ, 25° C., 5 mM Tris pH 7.4): 12.6%
Kd ([11]; non-linear regression of binding data to a rectangular hyperbola, read-out: relative dissociation constant): 75.9 ± 6.5 nM
incubation time to maximum level of fibril dissolution ([12]; 40-fold molar excess of iAβ (FIG. 14B), Aβ variant not stated): 2 days
dissolution of preformed Aβ1-40 fibrils ([12]; 40-fold molar excess of iAβ, 24 h incubation): almost complete dissolution
Aβ1-42 fibril reduction [13]: 51%
effect on Aβ1-40 fibril formation by electron microscopy [9]: only amorphous aggregates were obtained
dissolution of preformed Aβ1-40 fibrils by electron microscopy ([9]; fibrils preformed 6 days at 37° C., then 2 days with 1:40 molar ratio Aβ:iAβ): almost completely dissolved
amyloid-like material formed by the peptide alone, electron microscopy [10]: formed no amyloid-like material
aggregation of the peptide ([10]; even at high concentrations (4 mg/ml) or after more than 30 days of incubation): did not aggregate
decrease of the area occupied by amyloid in the spleen versus animals treated without the inhibitor ([14]; 5 mg iAβ injected together with AEF after 24 h preincubation, 5 days): approximately 86.4%
amyloid in spleen by image analysis, AEF/SN + iAβ, single animal ([14]; AEF 100 μg preincubated 24 h with 5 mg peptide, sacrificed at 5 days, AEF/SN alone average 31.2): 4.35 and 3.68 and 5.32 and 3.67
amyloid in spleen by image analysis, AEF/SN + iAβ, Average ± SE ([14]; four animals, AEF 100 μg preincubated 24 h with 5 mg peptide, 5 days, AEF/SN alone 31.2 ± 0.75): 4.26 ± 0.39
effect on apo E-induced promotion of Aβ fibrillogenesis [15]: blocked the promotion of Aβ fibrillogenesis
effect on heparan-sulfate proteoglycan-induced Aβ fibrillogenesis [16]: blocked

poly- (vinylsulfonate)
toxicity [17]: acutely toxic
